Laboratory results taken from patent US9493461B2, “Tetracyclic heterocycle compounds and methods of use thereof for the treatment of hepatitis C” (priority 2013, dated 2016).
pIC50: −log10 of the molar value. Read-outs that look alike come from different tables or passages of the source.

How the values were obtained:
HCV replicon genotype 1a = test: HCV replicon assay, genotype 1a (cell ELISA for replicon-encoded NS3/4A); type: cell-based, hepatitis C virus (HCV); details: for IC50: Hepatitis C virus, 96 h, read-out: 1a IC50 (nM), genotype 1a replicon cells, 96 hours incubation, NS3/4A ELISA readout, % of DMSO control
Description: Measurement of inhibition by compounds was performed using the HCV replicon system. Several different replicons encoding different HCV genotypes or mutations were used. In addition, potency measurements were made using different formats of the replicon assay, including different ways of measurements and different plating formats. See Jan M. Vrolijk et al., A replicons-based bioassay for the measurement of interferons in patients with chronic hepatitis C, 110 J. V[…] 201 (2003); Steven S. Carroll et al., Inhibition of Hepatitis C Virus RNA Replication by 2′-Modified Nucleoside Analogs, 278(14) J. BIOLOGICAL CHEMISTRY 11979 (2003). However, the underlying principles are common to all of these determinations, and are outlined below.
(§1) Stable neomycin phosphotransferase encoding replicons-harboring cell lines were used, so all cell lines were maintained under G418 selection prior to the assay. Potency was determined using a cell ELISA assay with an antibody to the replicons encoded NS3/4a protease. See Caterina Trozzi et al., In Vitro Selection and Characterization of Hepatitis C Virus Serine Protease Variants Resistant to an Active-Site Peptide Inhibitor, 77(6) J. Virol. 3669 (2003). To initiate an assay, replicon cells were plated in the presence of a dilution series of test compound in the absence of G418. Typically, the assays were performed in a 96-well plate formate for manual operation, or a 384-well plate format for automated assay. Replicon cells and compound were incubated for 96 hours. At the end of the assay, cells were washed free of media and compound, and the cells were then lysed. RNA was quantified indirectly through detection of replicon-encoded NS3/4A protein levels, through an ELISA-based assay with an antibody specific for NS3/4A. IC50 determinations were calculated as a percentage of a DMSO control by fitting the data to a four-parameter fit function and the data obtained is provided in the table below.
(§2) Data for selected compounds of the present invention was obtained for genotypes 1a and 1b using this method and is provided in the table below: […]

HCV replicon genotype 1b = test: HCV replicon assay, genotype 1b (cell ELISA for replicon-encoded NS3/4A); type: cell-based, hepatitis C virus (HCV); details: for IC50: Hepatitis C virus, 96 h, read-out: 1b IC50 (nM), genotype 1b replicon cells, 96 hours incubation, NS3/4A ELISA readout, % of DMSO control
Description: The HCV NS5B inhibitory activity of the present compounds may be tested using assays known in the art. The HCV NS5B polymerase inhibitors described herein have activities in a genotype 1b replicon assay as described in the Examples. The assay is performed by incubating a replicon harboring cell-line in the presence of inhibitor for a set period of time and measuring the effect of the inhibitor on HCV replicon replication either directly by quantifying replicon RNA level, or indirectly by measuring enzymatic activity of a co-encoded reporter enzyme such as luciferase or β-lactamase. By performing a series of such measurements at different inhibitor concentrations, the effective inhibitory concentration of the inhibitor (EC50 or EC90) is determined See Jan M. Vrolijk et al., A replicons-based bioassay for the measurement of interferons in patients with chronic hepatitis C, 110 J. VIROLOGICAL METHODS 201 (2003). Such assays may also be run in an automated format for high through-put screening. See Paul Zuck et al., A cell-based β-lactamase reporter gene assay for the identification of inhibitors of hepatitis C virus replication, 334 ANALYTICAL BIOCHEMISTRY 344 (2004).
Measurement of inhibition by compounds was performed using the HCV replicon system. Several different replicons encoding different HCV genotypes or mutations were used. In addition, potency measurements were made using different formats of the replicon assay, including different ways of measurements and different plating formats. See Jan M. Vrolijk et al., A replicons-based bioassay for the measurement of interferons in patients with chronic hepatitis C, 110 J. VIROLOGICAL METHODS 201 (2003); Steven S. Carroll et al., Inhibition of Hepatitis C Virus RNA Replication by 2′-Modified Nucleoside Analogs, 278(14) J. BIOLOGICAL CHEMISTRY 11979 (2003). However, the underlying principles are common to all of these determinations, and are outlined below.
as §1, §2

| SMILES | IC50 (HCV replicon genotype 1a) [nM] | IC50 (HCV replicon genotype 1b) [nM] | pIC50 (HCV replicon genotype 1a; read-out: 1a IC50, genotype 1a replicon cells, 96 hours incubation, NS3/4A ELISA readout, % of DMSO control) | pIC50 (HCV replicon genotype 1b; read-out: 1b IC50, genotype 1b replicon cells, 96 hours incubation, NS3/4A ELISA readout, % of DMSO control) |
| --- | --- | --- | --- | --- |
| CNC(=O)c1c(-c2ccc(F)cc2)oc2cc(N(C)S(C)(=O)=O)c(-c3ccc4nc(C(C)N5CC(F)C5)n5c6cccc(F)c6cc5c4n3)cc12 (single isomer, unassigned) [Example 39, (R or S)-5-(11-fluoro-6-(1-(3-fluoroazetidin-1-yl)ethyl)pyrido[3′,2′:4,5]pyrimido[1,6-a]indol-2-yl)-2-(4-fluorophenyl)-N-methyl-6-(N-methylmethylsulfonamido)benzofuran-3-carboxamide] | 6.37 | 6.08 |  |  |
| CNC(=O)c1c(-c2ccc(F)cc2)oc2cc(N(C)S(C)(=O)=O)c(-c3ccc4nc(C(C)N5CC(F)C5)n5c6cccc(F)c6cc5c4n3)cc12 (single isomer, unassigned) [Example 40, (S or R)-5-(11-fluoro-6-(1-(3-fluoroazetidin-1-yl)ethyl)pyrido[3′,2′:4,5]pyrimido[1,6-a]indol-2-yl)-2-(4-fluorophenyl)-N-methyl-6-(N-methylmethylsulfonamido)benzofuran-3-carboxamide] |  |  | 8.41 | 8.35 |
| CNC(=O)c1c(-c2ccc(F)cc2)oc2cc(N(C)S(C)(=O)=O)c(-c3ccc4nc(CCN5CC(F)C5)c5c([nH]c6cccc(F)c65)c4n3)cc12 [54′, 5-(7-fluoro-6-(2-(3-fluoroazetidin-1-yl)ethyl)-11H-indolo[3,2-c][1,5]naphthyridin-2-yl)-2-(4-fluorophenyl)-N-methyl-6-(N-methylmethylsulfonamido)benzofuran-3-carboxamide] | 4.17 | 4.24 |  |  |
| CNC(=O)c1c(-c2ccc(C(F)(F)F)nc2)oc2cc(N(C)S(C)(=O)=O)c(-c3ccc4ncn5c6cccc(F)c6cc5c4n3)cc12 [Example 1, 5-(11-fluoropyrido[3′,2′:4,5]pyrimido[1,6-a]indol-2-yl)-N-methyl-6-(N-methylmethylsulfonamido)-2-(6-(trifluoromethyl)pyridin-3-yl)benzofuran-3-carboxamide] | 6.56 | 4.01 |  |  |
| CNC(=O)c1c(-c2ccc(OC(F)F)nc2)oc2cc(N(C)S(C)(=O)=O)c(-c3ccc4ncn5c6cccc(F)c6cc5c4n3)cc12 [Example 2] | 2.83 | 6.91 |  |  |
| CNC(=O)c1c(-c2ccc(C(F)F)nc2)oc2cc(N(C)S(C)(=O)=O)c(-c3ccc4ncn5c6cccc(F)c6cc5c4n3)cc12 [Example 3] | 3.38 | 4.12 |  |  |
| CNC(=O)c1c(-c2ccc(C)nc2)oc2cc(N(C)S(C)(=O)=O)c(-c3ccc4ncn5c6cccc(F)c6cc5c4n3)cc12 [Example 5] | 3.7 | 7.4 |  |  |
| CNC(=O)c1c(-c2ccc(F)cc2C)oc2cc(N(C)S(C)(=O)=O)c(-c3ccc4ncn5c6cccc(F)c6cc5c4n3)cc12 [Example 6] | 3.2 | 5.08 |  |  |
| CNC(=O)c1c(-c2ccc(F)nc2)oc2cc(N(C)S(C)(=O)=O)c(-c3ccc4ncn5c6cccc(F)c6cc5c4n3)cc12 [Example 7] | 1.49 | 3.6 |  |  |
| CNC(=O)c1c(C2CC2)oc2cc(N(C)S(C)(=O)=O)c(-c3ccc4ncn5c6cccc(F)c6cc5c4n3)cc12 [Example 8] | 5.71 | 5.82 |  |  |
| CNC(=O)c1c(-c2ccc(F)cc2F)oc2cc(N(C)S(C)(=O)=O)c(-c3ccc4ncn5c6cccc(F)c6cc5c4n3)cc12 [Example 9, 2-(2,4-difluorophenyl)-5-(11-fluoropyrido[3′,2′:4,5]pyrimido[1,6-a]indol-2-yl)-N-methyl-6-(N-methylmethylsulfonamido)benzofuran-3-carboxamide] | 1.16 | 1.99 |  |  |
| CNC(=O)c1c(-c2ccc(F)cc2)oc2cc(N(C)S(C)(=O)=O)c(-c3ccc4ncn5c6cccc(F)c6cc5c4n3)cc12 [Example 10, 2-(4-fluorophenyl)-5-(11-fluoropyrido[3′,2′:4,5]pyrimido[1,6-a]indol-2-yl)-N-methyl-6-(N-methylmethylsulfonamido)benzofuran-3-carboxamide] | 2.01 | 3.24 |  |  |
| CNC(=O)c1c(-n2ccccc2=O)oc2cc(N(C)S(C)(=O)=O)c(-c3ccc4ncn5c6cccc(F)c6cc5c4n3)cc12 [Example 11, 5-(11-fluoropyrido[3′,2′:4,5]pyrimido[1,6-a]indol-2-yl)-N-methyl-6-(N-methylmethylsulfonamido)-2-(2-oxopyridin-1(2H)-yl)benzofuran-3-carboxamide] | 2.03 | 2.26 |  |  |
| CNC(=O)c1c(-n2ccc(C)cc2=O)oc2cc(N(C)S(C)(=O)=O)c(-c3ccc4ncn5c6cccc(F)c6cc5c4n3)cc12 [Example 12] | 2.11 | 2.36 |  |  |
| CNC(=O)c1c(-n2cnc(C)n2)oc2cc(N(C)S(C)(=O)=O)c(-c3ccc4ncn5c6cccc(F)c6cc5c4n3)cc12 [Example 13] | 298 | 99.5 |  |  |
| CNC(=O)c1c(-c2ccc(F)cc2)oc2nc(N(C)S(C)(=O)=O)c(-c3ccc4ncn5c6cccc(F)c6cc5c4n3)cc12 [Example 14, 2-(4-fluorophenyl)-5-(11-fluoropyrido[3′,2′:4,5]pyrimido[1,6-a]indol-2-yl)-N-methyl-6-(N-methylmethylsulfonamido)furo[2,3-b]pyridine-3-carboxamide] | 1.75 | 3.72 |  |  |
| CNC(=O)c1c2cc(-c3ccc4ncn5c6cccc(F)c6cc5c4n3)c(N(C)S(C)(=O)=O)cc2nn1-c1ccc(F)cc1 [Example 15, 2-(4-fluorophenyl)-5-(11-fluoropyrido[3′,2′:4,5]pyrimido[1,6-a]indol-2-yl)-N-methyl-6-(N-methylmethylsulfonamido)-2H-indazole-3-carboxamide] | 3.04 | 5.27 |  |  |
| CNC(=O)c1c(-c2ccc(F)cc2)nn2cc(N(C)S(C)(=O)=O)c(-c3ccc4ncn5c6cccc(F)c6cc5c4n3)cc12 [Example 16, 2-(4-fluorophenyl)-5-(11-fluoropyrido[3′,2′:4,5]pyrimido[1,6-a]indol-2-yl)-N-methyl-6-(N-methylmethylsulfonamido)pyrazolo[1,5-a]pyridine-3-carboxamide] | 0.954 | 2.22 |  |  |
| CNC(=O)c1c(-c2ccc(C(F)(F)F)nc2)oc2cc(N(C)S(C)(=O)=O)c(-c3cc4c(cn3)ncn3c5cccc(F)c5cc43)cc12 [Example 17, 5-(11-fluoropyrido[3′,4′:4,5]pyrimido[1,6-a]indol-2-yl)-N-methyl-6-(N-methylmethylsulfonamido)-2-(6-(trifluoromethyl)pyridin-3-yl)benzofuran-3-carboxamide] | 1.27 | 1.78 |  |  |
| CNC(=O)c1c(-c2ccc(OC(F)F)nc2)oc2cc(N(C)S(C)(=O)=O)c(-c3cc4c(cn3)ncn3c5cccc(F)c5cc43)cc12 [Example 18] | 1.06 | 1.86 |  |  |
| CNC(=O)c1c(-c2ccc(C)nc2)oc2cc(N(C)S(C)(=O)=O)c(-c3cc4c(cn3)ncn3c5cccc(F)c5cc43)cc12 [Example 19] | 2.79 | 5.64 |  |  |
| CNC(=O)c1c(-c2ccc(F)cc2)oc2cc(N(C)S(C)(=O)=O)c(-c3ccc4ncn5c6ccc(F)cc6cc5c4n3)cc12 [Example 20, 2-(4-fluorophenyl)-5-(10-fluoropyrido[3′,2′:4,5]pyrimido[1,6-a]indol-2-yl)-N-methyl-6-(N-methylmethylsulfonamido)benzofuran-3-carboxamide] | 1.59 | 3.33 |  |  |
